# Experimental data published in patent publication US9995734B2, “Human T cell line assay for evaluating the immunologic identity of glatiramer acetate preparations” (Mylan Inc., priority 2013, dated 2018).
# “And” between values parts separate entries of the source, which are not always exact repeats. Identical values can stand only once.
# Assays:
# Assay type in all cases: cell-based, human
# Donor 3 COP T-Cell Lines = experiment: ATP proliferation assay (CellTiter Glo), Donor 3 COP T-cell lines, incl. reactivity to non-canonical GA peptides; details: for Non-Canonical Peptide Reactivity: at least one proliferation value >=2 times no antigen control
# [1] = tested on: Donor 1 GMA Expanded T-Cell Lines (222-AG11, 222-AG12, 222-BA11, 222-BC11); experiment: ATP proliferation assay (CellTiter Glo), Donor 1 GMA expanded T-cell lines, incl. reactivity to non-canonical GA peptides; details: for Proliferation (luminescent ATP assay), Mean: T-cell line 222-AG12, autologous B-LCL
# Method: Proliferation was evaluated by measuring ATP content using a luminescent method (CellTiter Glo Luminescent Cell Viability Assay, Promega, Madison, Wis., cat. #G7571) or by measuring BrdU uptake by ELISA (Millipore cat. #2752), in both cases following kit instructions. A split well format was used. Cells in each well were resuspended and 65 μl transferred to the wells of each of two new U-bottom 96-well plates, to generate the replicate plates. For the initial screening, the original 96-well plate received mitomycin-treated autologous PBMC as APC plus 10 μg/mL antigen (GA). A first replicate plate received 100 μl., mitomycin-treated PBMC alone (2×10^5), and no antigen, and a second replicate plate received 100 μL mitomycin-treated PBMC plus GA at a final concentration of 10 μg/mL. Therefore, all three plates received autologous APC (PBMC) treated with mitomycin C to prevent cell division. […] The latter two plates were incubated for 3 days at 37° C., 6% CO2 before adding CellTiter Glo or BrdU and measuring signal. IL-2 was added at 10 U/mL to the original 96-well plate for expansion on Day 17. For subsequent screenings, mitomycin-treated EBV-transformed autologous B-LCL (2×10^5 to 5×10^5 cells/mL) were used as APC.
# On Day 24, cells from the wells corresponding to the eight presumptive GA-specific human T-cell lines listed in Table 4 were transferred to a 24-well plate and expanded by stimulating with 10 μg/mL GMA and mitomycin-treated autologous PBMC as APC (3×10^6 per well, i.e., 1.5×10^6/mL). On Day 32 four of the eight lines, 222-BA11, 222-BC11, 222-AG11, and 222-AG12, were stimulated with 0, 1, 10 and 100 μg/mL GMA and tested in a 96-well plate for a proliferative response to GMA using an ATP assay, again using autologous PBMC as APC (2×10^5 per well, i.e., 1×10^6/mL). […] FIGS. 2A and B show the results of the ATP proliferation assay carried out using 222-AG12, 222-BC11, 222-AG11, and 222-BA11 at Day 35 (control=no antigen). FIGS. 3A-C compare the results of ATP proliferation assays carried out after stimulation with varying concentrations of GMA or Copaxone as indicated, using cell lines 222-BA11, 222-BC11, and 222-AG12.
# Donor 1 GMA T-cell line 222-AG12 was assayed for proliferation following stimulation with 0, 1, 10, and 30 μg/mL each of peptides GLT 631, GAT 631, GAT 111, LT 11, GT 11, GL 14, COP, and GMA, at a T-cell concentration of 2×10^5 cells/mL, in the presence of mitomycin C-treated autologous B-LCL. Line 222-AG12 was assayed after 3 rounds of restimulation (4 total stimulations). Proliferation was measured by luminescent ATP assay.
# Donor 3 GMA T-Cell Lines = experiment: ATP proliferation assay (CellTiter Glo), Donor 3 GMA T-cell lines, incl. reactivity to non-canonical GA peptides; details: for Non-Canonical Peptide Non-Reactivity: proliferation <2 times no antigen control; for Non-Canonical Peptide Reactivity: at least one proliferation value >=2 times no antigen control
substance,measurement,setting,value
poly (Lys-Tyr; 1:1) [LT 11],Non-Canonical Peptide Reactivity,Donor 3 COP T-Cell Lines; 165-C4C,LT 11
same,Non-Canonical Peptide Reactivity,Donor 3 COP T-Cell Lines; 165-C7C,LT 11
same,proliferation response to non-canonical GA peptides,"Donor 3 COP T-Cell Lines; 165-F3C (Day 77) and 165-C4C (Day 66), 0, 1, 3, 10 μg/mL",responded well
same,Non-Canonical Peptide Reactivity,Donor 3 COP T-Cell Lines; 165-F3C,LT 11
same,Non-Canonical Peptide Non-Reactivity,"Donor 3 COP T-Cell Lines; 165-F6C, proliferation <2 times no antigen control",LT 11
same,Reactive T-Cell Line,"Donor 3 COP T-Cell Lines; Donor 3 COP lines, at least a 50% increase in proliferation relative to a control after stimulation with the non-canonical GA peptide",165-C4C (Donor 3) and 165-C7C (Donor 3) and 165-F3C (Donor 3)
same,Nonreactive T-Cell Line,"Donor 3 COP T-Cell Lines; Donor 3 COP lines, stimulation with the non-canonical GA peptide",165-F6C (Donor 3)
same,"Proliferation (luminescent ATP assay), Mean","Donor 3 COP T-Cell Lines; T-cell line 165-C4C, 1 μg/mL antigen, Day 66 of culture, 0 μg/mL 1881",2430
same,"Proliferation (luminescent ATP assay), Mean","Donor 3 COP T-Cell Lines; T-cell line 165-C4C, 3 μg/mL antigen, Day 66 of culture, 0 μg/mL 1881",2701
same,"Proliferation (luminescent ATP assay), Mean","Donor 3 COP T-Cell Lines; T-cell line 165-C4C, 10 μg/mL antigen, Day 66 of culture, 0 μg/mL 1881",4129
same,"Proliferation (luminescent ATP assay), Mean","Donor 3 COP T-Cell Lines; T-cell line 165-C7C, 1.25 μg/mL antigen, autologous B-LCL",418 RLU
same,"Proliferation (luminescent ATP assay), Mean","Donor 3 COP T-Cell Lines; T-cell line 165-C7C, 2.5 μg/mL antigen, autologous B-LCL",305 RLU
same,"Proliferation (luminescent ATP assay), Mean","Donor 3 COP T-Cell Lines; T-cell line 165-C7C, 5 μg/mL antigen, autologous B-LCL",244 RLU
same,"Proliferation (luminescent ATP assay), Mean","Donor 3 COP T-Cell Lines; T-cell line 165-C7C, 10 μg/mL antigen, autologous B-LCL",119 RLU
same,"Proliferation (luminescent ATP assay), Mean","Donor 3 COP T-Cell Lines; T-cell line 165-F3C, 1 μg/mL antigen, Day 77 of culture, 0 μg/mL 1563",2144
same,"Proliferation (luminescent ATP assay), Mean","Donor 3 COP T-Cell Lines; T-cell line 165-F3C, 3 μg/mL antigen, Day 77 of culture, 0 μg/mL 1563",2605
same,"Proliferation (luminescent ATP assay), Mean","Donor 3 COP T-Cell Lines; T-cell line 165-F3C, 10 μg/mL antigen, Day 77 of culture, 0 μg/mL 1563",3608
same,"Proliferation (luminescent ATP assay), Mean","Donor 3 COP T-Cell Lines; T-cell line 165-F6C, 1.25 μg/mL antigen, Day 76 of culture, No Antigen value 517",431
same,"Proliferation (luminescent ATP assay), Mean","Donor 3 COP T-Cell Lines; T-cell line 165-F6C, 2.5 μg/mL antigen, Day 76 of culture, No Antigen value 517",518
same,"Proliferation (luminescent ATP assay), Mean","Donor 3 COP T-Cell Lines; T-cell line 165-F6C, 5 μg/mL antigen, Day 76 of culture, No Antigen value 517",490
same,"Proliferation (luminescent ATP assay), Mean","Donor 3 COP T-Cell Lines; T-cell line 165-F6C, 10 μg/mL antigen, Day 76 of culture, No Antigen value 517",736
same,Non-Canonical Peptide Non-Reactivity,"[1]; 222-AG12, proliferation <2 times no antigen control",LT 11
same,Nonreactive T-Cell Line,"[1]; Donor 1 GMA expanded lines, stimulation with the non-canonical GA peptide",222-AG12 (Donor 1)
same,"Proliferation (luminescent ATP assay), Mean",[1]; 1 ug/mL antigen,3452 RLU
same,"Proliferation (luminescent ATP assay), Mean",[1]; 10 ug/mL antigen,4242 RLU
same,"Proliferation (luminescent ATP assay), Mean",[1]; 30 ug/mL antigen,2347 RLU
same,proliferation response to non-canonical GA peptides,"Donor 3 GMA T-Cell Lines; 165-05G (so in the source), minimum 55 days in culture, 0, 1, 3, 10 μg/mL",responded
same,Non-Canonical Peptide Non-Reactivity,Donor 3 GMA T-Cell Lines; 165-B5G,LT 11
same,Non-Canonical Peptide Reactivity,Donor 3 GMA T-Cell Lines; 165-C5G,LT 11
same,Non-Canonical Peptide Non-Reactivity,Donor 3 GMA T-Cell Lines; 165-E7G,LT 11
same,Non-Canonical Peptide Non-Reactivity,Donor 3 GMA T-Cell Lines; 165-E9G,LT 11
same,Non-Canonical Peptide Non-Reactivity,Donor 3 GMA T-Cell Lines; 165-F5G,LT 11
same,Non-Canonical Peptide Reactivity,Donor 3 GMA T-Cell Lines; 165-F10G,LT 11
same,Non-Canonical Peptide Non-Reactivity,Donor 3 GMA T-Cell Lines; 165-H11G,LT 11
same,Reactive T-Cell Line,"Donor 3 GMA T-Cell Lines; Donor 3 GMA lines, at least a 50% increase in proliferation relative to a control after stimulation with the non-canonical GA peptide",165-C5G (Donor 3) and 165-F10G (Donor 3)
same,Nonreactive T-Cell Line,"Donor 3 GMA T-Cell Lines; Donor 3 GMA lines, stimulation with the non-canonical GA peptide",165-B5G (Donor 3) and 165-F5G (Donor 3) and 165-E7G (Donor 3) and 165-E9G (Donor 3) and 165-H11G (Donor 3)
same,"Proliferation (luminescent ATP assay), Mean","Donor 3 GMA T-Cell Lines; T-cell line 165-B5G, 1.25 μg/mL antigen, Day 55 of culturing, No Antigen Value 846",1497 RLU
same,"Proliferation (luminescent ATP assay), Mean","Donor 3 GMA T-Cell Lines; T-cell line 165-B5G, 2.5 μg/mL antigen, Day 55 of culturing, No Antigen Value 846",1724 RLU
same,"Proliferation (luminescent ATP assay), Mean","Donor 3 GMA T-Cell Lines; T-cell line 165-B5G, 5 μg/mL antigen, Day 55 of culturing, No Antigen Value 846",1666 RLU
same,"Proliferation (luminescent ATP assay), Mean","Donor 3 GMA T-Cell Lines; T-cell line 165-B5G, 10 μg/mL antigen, Day 55 of culturing, No Antigen Value 846",2705 RLU
same,"Proliferation (luminescent ATP assay), Mean","Donor 3 GMA T-Cell Lines; T-cell line 165-C5G, 1.25 μg/mL antigen, autologous B-LCL",527 RLU
same,"Proliferation (luminescent ATP assay), Mean","Donor 3 GMA T-Cell Lines; T-cell line 165-C5G, 2.5 μg/mL antigen, autologous B-LCL",680 RLU
same,"Proliferation (luminescent ATP assay), Mean","Donor 3 GMA T-Cell Lines; T-cell line 165-C5G, 5 μg/mL antigen, autologous B-LCL",3010 RLU
same,"Proliferation (luminescent ATP assay), Mean","Donor 3 GMA T-Cell Lines; T-cell line 165-C5G, 10 μg/mL antigen, autologous B-LCL",34438 RLU
same,"Proliferation (luminescent ATP assay), Mean","Donor 3 GMA T-Cell Lines; T-cell line 165-E7G, 1.25 μg/mL antigen, autologous B-LCL, Day 55",2785 RLU
same,"Proliferation (luminescent ATP assay), Mean","Donor 3 GMA T-Cell Lines; T-cell line 165-E7G, 2.5 μg/mL antigen, autologous B-LCL, Day 55",5270 RLU
same,"Proliferation (luminescent ATP assay), Mean","Donor 3 GMA T-Cell Lines; T-cell line 165-E7G, 5 μg/mL antigen, autologous B-LCL, Day 55",3559 RLU
same,"Proliferation (luminescent ATP assay), Mean","Donor 3 GMA T-Cell Lines; T-cell line 165-E7G, 10 μg/mL antigen, autologous B-LCL, Day 55",1983 RLU
same,"Proliferation (luminescent ATP assay), Mean","Donor 3 GMA T-Cell Lines; T-cell line 165-E9G, 1.25 μg/mL antigen, autologous B-LCL",132 RLU
same,"Proliferation (luminescent ATP assay), Mean","Donor 3 GMA T-Cell Lines; T-cell line 165-E9G, 2.5 μg/mL antigen, autologous B-LCL",129 RLU
same,"Proliferation (luminescent ATP assay), Mean","Donor 3 GMA T-Cell Lines; T-cell line 165-E9G, 5 μg/mL antigen, autologous B-LCL",89 RLU
same,"Proliferation (luminescent ATP assay), Mean","Donor 3 GMA T-Cell Lines; T-cell line 165-E9G, 10 μg/mL antigen, autologous B-LCL",91 RLU
same,"Proliferation (luminescent ATP assay), Mean","Donor 3 GMA T-Cell Lines; T-cell line 165-F5G, 1.25 μg/mL antigen, autologous B-LCL",126 RLU
same,"Proliferation (luminescent ATP assay), Mean","Donor 3 GMA T-Cell Lines; T-cell line 165-F5G, 2.5 μg/mL antigen, autologous B-LCL",113 RLU
same,"Proliferation (luminescent ATP assay), Mean","Donor 3 GMA T-Cell Lines; T-cell line 165-F5G, 5 μg/mL antigen, autologous B-LCL",136 RLU
same,"Proliferation (luminescent ATP assay), Mean","Donor 3 GMA T-Cell Lines; T-cell line 165-F5G, 10 μg/mL antigen, autologous B-LCL",129 RLU
same,"Proliferation (luminescent ATP assay), Mean","Donor 3 GMA T-Cell Lines; T-cell line 165-F10G, 1.25 μg/mL antigen, autologous B-LCL",1145 RLU
same,"Proliferation (luminescent ATP assay), Mean","Donor 3 GMA T-Cell Lines; T-cell line 165-F10G, 2.5 μg/mL antigen, autologous B-LCL",1270 RLU
same,"Proliferation (luminescent ATP assay), Mean","Donor 3 GMA T-Cell Lines; T-cell line 165-F10G, 5 μg/mL antigen, autologous B-LCL",1552 RLU
same,"Proliferation (luminescent ATP assay), Mean","Donor 3 GMA T-Cell Lines; T-cell line 165-F10G, 10 μg/mL antigen, autologous B-LCL",8012 RLU
same,"Proliferation (luminescent ATP assay), Mean","Donor 3 GMA T-Cell Lines; T-cell line 165-H11G, 1.25 μg/mL antigen, autologous B-LCL",15 RLU
same,"Proliferation (luminescent ATP assay), Mean","Donor 3 GMA T-Cell Lines; T-cell line 165-H11G, 2.5 μg/mL antigen, autologous B-LCL",326 RLU
same,"Proliferation (luminescent ATP assay), Mean","Donor 3 GMA T-Cell Lines; T-cell line 165-H11G, 5 μg/mL antigen, autologous B-LCL",357 RLU
same,"Proliferation (luminescent ATP assay), Mean","Donor 3 GMA T-Cell Lines; T-cell line 165-H11G, 10 μg/mL antigen, autologous B-LCL",178 RLU
